Measured values: patent publication US12226507B2, “Use of dianhydrohexitol in oral and dental care to reduce the development of bacterial strains” (ROQUETTE FRERES, priority 2017, dated 2025)

How the values were obtained:
Type in all cases: cell-based
[1] = system: Actinomyces oris; assay: Bacterial growth of Actinomyces oris in the presence of polyols; settings: aerobic conditions, FIG. 6
Method: (§1) The growth of these strains was then measured in the presence of isosorbide, maltitol, xylitol, allulose, sorbitol powder and dextrose monohydrate in an unrefreshed culture medium, incubated at 37° C. for 48 hours or 72 hours under aerobic or anaerobic conditions. The growths were measured by bacterial counting on solid medium. The results are expressed in Log 10 (CFU/ml). The culture media used are the Bacto Brain Heart Infusion (ref. 237500-BD (BHI)) and Difco™ Brain Heart Infusion Agar (ref. 241830-BD (BHIa)) culture media.

[2] = system: Actinomyces naeslundii; assay: Bacterial growth of Actinomyces naeslundii in the presence of polyols; settings: for bacterial population: FIG. 4 as printed
Method: as §1

[3] = system: oral bacterial strains; assay: Growth of the oral bacterial strains overall (summary of all strains tested)
Method: as §1

[4] = system: Lactobacillus gasseri; assay: Bacterial growth of Lactobacillus gasseri in the presence of polyols; settings: anaerobic conditions, FIG. 3
Method: as §1

[5] = system: Streptococcus mutans; assay: Bacterial growth and biofilm of Streptococcus mutans strain from a decayed tooth, in the presence of polyols; settings: FIG. 2
Method: as §1, with “incubated at 37° C. for 48 hours or 72 hours under aerobic or anaerobic” left out

[6] = system: Streptococcus mutans; assay: Bacterial growth of Streptococcus mutans strain from a healthy tooth, in the presence of polyols, counting on solid medium; settings: aerobic conditions, FIG. 1
Method: as §1

SMILES: O=C(CO)C(O)C(O)C(O)CO (stereo not shown) [allulose]
- bacterial growth [1]: slowed relative to the other polyols tested

SMILES: O[C@@H]1CO[C@H]2[C@@H]1OC[C@@H]2O [isosorbide, 1,4:3,6-dianhydrosorbitol]
- bacterial growth ([2]; aerobic conditions, FIG. 5): remains low relative to the other polyols
- bacterial population from T=40 hours ([2]; aerobic conditions, from T=40 hours, FIG. 5): substantial decrease
- kind of effect on the bacterial population ([2]; anaerobic conditions): bactericidal effect
- bacterial population ([2]; anaerobic conditions): falls constantly until it disappears completely
- growth of the bacterial strains, all cases ([3]; all strains and conditions tested): very significant decrease
- level of performance relative to xylitol or sorbitol ([3]; comparison with polyols of commercial toothpastes): even higher than that observed with xylitol or sorbitol
- bacterial growth [1]: decreases greatly over time in the presence of isosorbide, then stabilizes after 24 hours
- bacterial growth ([4]; T=24 hours): remains absent
- kind of effect, populations beyond 24 hours ([4]; beyond 24 hours): inhibitory effect
- bacterial growth ([5]; anaerobic conditions): varies little
- biofilm formed ([5]; anaerobic conditions, after 96 hours of incubation): biofilm formed in the absence of isosorbide is much more pronounced than in the presence of isosorbide
- bacterial growth ([5]; strain from a decayed tooth): Very slowed growth
- bacterial population after 24 hours [6]: declines slightly
- kind of effect on the bacterial population [6]: bacteriostatic effect
- bacterial growth ([6]; T=24 hours): remain absent

SMILES: OC[C@@H](O)[C@H](O)[C@@H](O)CO [xylitol, reference compound]
- bacterial growth ([2]; aerobic conditions, FIG. 5): appears to further curb the bacterial growth than the other polyols tested
- bacterial population ([2]; anaerobic conditions): remains stable
- bacterial growth [1]: slowed relative to the other polyols tested
